According to US7601333B2, “Use of a tetrapeptide AcSDKP (SEQ ID No. 1) analog resistant to the angiotensin I converting enzyme for measuring glomerular filtration rate in a human or an animal and kit containing same” (Assistance Publique-Hopitaux de Paris, priority 2003, dated 2009):
Values joined by “and” are separate entries in the source; they are usually repeats but may differ in a detail not shown here. Equal values may be shown once. Residues, ends and D or L forms follow the SMILES beside them.

Legend:
[1] = cited from earlier work
plasma proteins = settings: cited from earlier work
N-terminal site of ACE = N-terminal site of ACE (Homo sapiens, UniProt P12821); settings: AcSDKP as substrate, in vitro; cited from earlier work
Chain of N-terminal site of ACE (P12821 40-624 limits assumed): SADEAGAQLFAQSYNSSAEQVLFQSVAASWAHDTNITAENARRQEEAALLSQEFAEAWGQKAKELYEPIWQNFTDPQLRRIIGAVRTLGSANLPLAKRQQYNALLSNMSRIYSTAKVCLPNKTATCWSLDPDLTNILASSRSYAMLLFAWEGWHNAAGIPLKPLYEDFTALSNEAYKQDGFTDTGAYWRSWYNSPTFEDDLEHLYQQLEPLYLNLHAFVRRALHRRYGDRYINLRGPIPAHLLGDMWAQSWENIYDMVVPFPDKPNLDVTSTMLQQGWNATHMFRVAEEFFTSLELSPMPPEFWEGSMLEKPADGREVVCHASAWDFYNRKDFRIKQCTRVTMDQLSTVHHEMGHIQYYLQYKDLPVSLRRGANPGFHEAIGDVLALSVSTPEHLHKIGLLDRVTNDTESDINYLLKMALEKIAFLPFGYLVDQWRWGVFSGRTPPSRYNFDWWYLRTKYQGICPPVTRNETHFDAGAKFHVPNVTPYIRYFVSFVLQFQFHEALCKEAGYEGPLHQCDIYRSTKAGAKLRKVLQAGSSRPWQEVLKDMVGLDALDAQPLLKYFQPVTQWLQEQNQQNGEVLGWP

[2] = Plasma and urine pharmacokinetics after I.V. bolus in rats; settings: for % excreted - endog / CLR -endog: endogenous AcSDKP subtracted; for % excreted: urine
[3] = Group 1, i.v. bolus, without captopril, mean
[4] = Group 1, i.v. bolus, without captopril, single rats
[5] = Group 2, i.v. bolus, with captopril, 2-4 h, single rats
[6] = Group 2, i.v. bolus, with captopril, mean
[7] = Group 2, i.v. bolus, with captopril, single rats
[8] = summarizing table, rats, i.v. bolus, with captopril
[9] = summarizing table, rats, i.v. bolus, without captopril

CC(=O)N[C@@H](CO)C(=O)N[C@@H](CC(=O)O)C(=O)N[C@@H](CCCCN)C(=O)N1CCC[C@H]1C(=O)O [AcSDKP, N-acetyl-Ser-Asp-Lys-Pro] (Ac-SDKP-OH; C-terminus assumed)
concentration in the plasma, minimum value ([1]; between two 50 mg doses of captopril): 2 nM
urinary clearance relative to endogenous creatinine clearance ([1]; with an ACE inhibitor): 69±27%
bound to the plasma proteins (plasma proteins): < 1%
catalytic effectiveness of N-terminal site of ACE relative to C-terminal site (N-terminal site of ACE): 50 times
Q in urine ([2]; Group 1, i.v. bolus, without captopril, 0-2 h, single rats): 25.1 nmol and 0.0 nmol and 46.7 nmol and 0.1 nmol
Q in urine ([2]; Group 1, i.v. bolus, without captopril, 2-4 h, single rats): 7.1 nmol and 0.0 nmol and 15.7 nmol and 36.4 nmol
Q in urine ([2]; Group 1, i.v. bolus, without captopril, 4-5 h, single rats): 33.5 nmol and 51.3 nmol and 0.0 nmol and 14.6 nmol
Q in urine ([2]; Group 1, i.v. bolus, without captopril, 5-24 h, single rats): 9.9 nmol and 10.2 nmol and 0.0 nmol and 20.6 nmol and 78.5 nmol
Q in urine ([2]; Group 1, i.v. bolus, without captopril, 24-36 h, single rats): 4.1 nmol and 3.4 nmol and 15.5 nmol and 0.9 nmol
Q in urine ([2]; Group 1, i.v. bolus, without captopril, 36-48 h, single rats): 4.0 nmol and 1.7 nmol and 3.4 nmol and 2.0 nmol and 7.9 nmol
Concentration in plasma ([2]; Group 1, i.v. bolus, without captopril, 5 min, single rats): 2188 nM and 1759 nM and 1239 nM and 2100 nM and 1802 nM
Concentration in plasma ([2]; Group 1, i.v. bolus, without captopril, 10 min, single rats): 729 nM and 400 nM and 265 nM and 671 nM and 508 nM
Concentration in plasma ([2]; Group 1, i.v. bolus, without captopril, 15 min, single rats): 268 nM and 96 nM and 135 nM and 328 nM and 143 nM
Concentration in plasma ([2]; Group 1, i.v. bolus, without captopril, 30 min, single rats): 34 nM and 14 nM and 10 nM (2×) and 121 nM
Concentration in plasma ([2]; Group 1, i.v. bolus, without captopril, 60 min, single rats): 5 nM and 0.36 nM and 0.15 nM and 33 nM and 2 nM
Concentration in plasma ([2]; Group 1, i.v. bolus, without captopril, 120 min, single rats): ILQ (4×) and 2 nM
Concentration in plasma ([2]; Group 1, i.v. bolus, without captopril, 180 min, single rats): ILQ
Concentration in plasma ([2]; Group 1, i.v. bolus, without captopril, 240 min, single rats): ILQ
Concentration in plasma ([2]; Group 1, i.v. bolus, without captopril, 300 min, single rats): ILQ
% excreted - endog [2, 3]: 7.86%
CLR -endog [2, 3]: 11.21 mL/min/kg
% excreted - endog [2, 4]: 8.9% and 8.0% and 5.6% and 8.3% and 8.5%
CLR -endog [2, 4]: 8.6 mL/min/kg and 11.1 mL/min/kg and 11.5 mL/min/kg and 11.8 mL/min/kg and 13.0 mL/min/kg
AUC0-inf [2, 3]: 17393 nM·min
CLR [2, 3]: 14.52 mL/min/kg
VD [2, 3]: 1.389 L/kg
t½ [2, 3]: 6.8 min
AUC0-inf [2, 4]: 230401 nM·min and 16319 nM·min and 13026 nM·min and 18178 nM·min and 16223 nM·min
CLR [2, 4]: 10.7 mL/min/kg and 12.5 mL/min/kg and 20.3 mL/min/kg and 12.8 mL/min/kg and 16.4 mL/min/kg
Q in urine total [2, 4]: 83.7 nmol and 66.6 nmol and 81.3 nmol and 74.5 nmol and 86.5 nmol
VD [2, 4]: 0.894 L/kg and 1.07 L/kg and 1.034 L/kg and 2.6 L/kg and 1.346 L/kg
t½ [2, 4]: 6.4 min and 4.7 min and 4.4 min and 12.8 min and 5.9 min
% excreted [2, 4]: 1.1% and 9.4% and 10.5% and 8.9% and 10.4%
Q in urine ([2]; Group 2, i.v. bolus, with captopril, 0-2 h, single rats): 0.0 nmol
Concentration in urine [2, 5]: 126118 nM
Q in urine [2, 5]: 0.2 nmol and 744.4 nmol and 820.9 nmol and 0.0 nmol and 535.3 nmol
Q in urine ([2]; Group 2, i.v. bolus, with captopril, 4-6 h, single rats): 0.0 nmol
Q in urine ([2]; Group 2, i.v. bolus, with captopril, 6-24 h, single rats): 504.6 nmol and 49.0 nmol and 219.7 nmol and 649.1 nmol and 202.3 nmol
Q in urine ([2]; Group 2, i.v. bolus, with captopril, 24-30 h, single rats): 1.6 nmol and 9.6 nmol and 0.0 nmol (3×)
Q in urine ([2]; Group 2, i.v. bolus, with captopril, 30-48 h, single rats): 8.0 nmol and 2.5 nmol and 10.6 nmol (2×) and 0.4 nmol
Concentration in plasma ([2]; Group 2, i.v. bolus, with captopril, 5 min, single rats): 6707 nM and 5413 nM and 5511 nM and 5293 nM and 5393 nM
Concentration in plasma ([2]; Group 2, i.v. bolus, with captopril, 10 min, single rats): 5920 nM and 4813 nM and 4288 nM and 5439 nM and 4445 nM
Concentration in plasma ([2]; Group 2, i.v. bolus, with captopril, 15 min, single rats): 5571 nM and 4016 nM and 3399 nM and 3876 nM and 3343 nM
Concentration in plasma ([2]; Group 2, i.v. bolus, with captopril, 30 min, mean): 2457 nM
Concentration in plasma ([2]; Group 2, i.v. bolus, with captopril, 30 min, single rats): 2173 nM
Concentration in plasma ([2]; Group 2, i.v. bolus, with captopril, 60 min, single rats): 1759 nM and 735 nM and 848 nM and 1069 nM and 590 nM
Concentration in plasma ([2]; Group 2, i.v. bolus, with captopril, 120 min, single rats): 501 nM and 151 nM and 145 nM and 197 nM and 97 nM
Concentration in plasma ([2]; Group 2, i.v. bolus, with captopril, 180 min, single rats): 159 nM and 32 nM and 39 nM and 48 nM and 21 nM
Concentration in plasma ([2]; Group 2, i.v. bolus, with captopril, 240 min, single rats): 52 nM and 10 nM and 18 nM and 23 nM and 7 nM
Concentration in plasma ([2]; Group 2, i.v. bolus, with captopril, 300 min, single rats): 26 nM and 9 nM and 6 nM and 11 nM and 4 nM
% excreted - endog [2, 6]: 97%
CLR -endog [2, 6]: 11.67 mL/min/kg
% excreted - endog [2, 7]: 75.3% and 85.1% and 139.3% and 90.2% and 95.1%
CLR -endog [2, 7]: 5.2 mL/min/kg and 13.2 mL/min/kg and 16.4 mL/min/kg and 10.1 mL/min/kg and 13.5 mL/min/kg
AUC0-INF [2, 6]: 224742 nM·min
CLR [2, 6]: 11.94 mL/min/kg
Vd [2, 6]: 0.515 L/kg
t½ [2, 6]: 30.7 min
AUC0-INF [2, 7]: 341133 nM·min and 196456 nM·min and 200683 nM·min and 217932 nM·min and 167504 nM·min
CLR [2, 7]: 5.39 mL/min/kg and 13.59 mL/min/kg and 16.71 mL/min/kg and 10.09 mL/min/kg and 13.91 mL/min/kg
Q in urine total [2, 7]: 514.5 nmol and 805.5 nmol and 1051.2 nmol and 649.5 nmol and 748.3 nmol
Vd [2, 7]: 0.653 L/kg and 0.499 L/kg and 0.505 L/kg and 0.567 L/kg
t½ [2, 7]: 35.5 min and 29.2 min and 29.5 min and 31.4 min and 28.1 min
% excreted [2, 7]: 78.2% and 87.7% and 142.2% and 90.4% and 97.9%
degradation in vivo ([2]; rats, in the absence of captopril): rapidly degraded in vivo
Renal clearance [2, 8]: 11.7 mL/min/kg
T ½ life [2, 8]: 30.7 min
Total clearance [2, 8]: 11.9 mL/min/kg
T ½ life [2, 9]: 6.8 min
Total clearance [2, 9]: 144.4 mL/min/kg
